The numbers were not newly measured in patent US9151747B1, “Sucralose antibody and immunoassay” (Mercyhurst University, priority 2013, dated 2015), which cites them from elsewhere.

The conditions of data set [1]: background statement.
The conditions of data set [2]: background statement. This is another data set of the same source.

For the compound `OC[C@H]1O[C@H](O[C@]2(CCl)O[C@H](CCl)[C@@H](O)[C@@H]2O)[C@H](O)[C@@H](O)[C@H]1Cl` [Sucralose, sucralose], the “breakdown by the human body” value in data set [1] is “minimal breakdown”. Further, in data set [2], the “sweetness relative to table sugar” value is recorded as 600 times.
